Patent publication US20260193180A1, “AUTOPHAGY INDUCING COMPOUNDS AND USES THEREOF” (SAMSARA THERAPEUTICS INC., priority 2022, published 2026)
Structures can show the parent of a compound that is named as a salt.

System: Human osteosarcoma U2OS cells
Experiment: Acidic vesicle formation (lysosome/autolysosome staining, LysoView 633 / LysoTracker Deep Red), stimulation of autophagy
Assay type: cell-based
Details: 24 hours; for activation at 0.8 µM: read-out: Activity (percentage increase in acidic vesicle formation over the DMSO-treated control); for activation at 10 µM: read-out: increase in acidic vesicle formation over the DMSO-treated control
Experimental: Lysosomes play a fundamental role in the autophagic pathway by fusing with autophagosomes and creating ‘autolysosomes’ in order to digest their contents. Stimulation of lysosome and autolysosome formation by a compound is indicative of a stimulation of autophagy. The ability of compounds to stimulate lysosome and autolysosome formation, and thus autophagy, in live cells was assessed via fluorescent microscopy using various fluorescent stains for labelling and tracking acidic organelles (including lysosomes and autolysosomes) such as: LysoView™ 650 (70059 and 70059-T, Biotium), LysoView™633 (70058 and 70058-T, Biotium) and LysoTracker™ Deep Red (L12492, ThermoFisher Scientific). The cellular phenotype was quantitatively assessed for the induction of acidic vesicle formation and compared to a non-treated control, thus providing a measure of the ability of the compound under investigation to stimulate autophagy.
Representative procedure using LysoView™633 dye or LysoTracker™ Deep Red dye: Human osteosarcoma U2OS cells (40,000 cells/well) were seeded in a 24 well glass bottom plate (Sensoplate, Greiner Bio-One) and were incubated overnight in a humidified atmosphere at 37° C. and 5% CO2. Cells were grown in DMEM (Gibco) supplemented with 10% Fetal Bovine Serum (FBS) and 100 units/ml penicillin and 100 μg/ml streptomycin (Invitrogen). After the attachment period, cells were treated with different compounds of interest (at various concentrations in DMSO) or DMSO (non-treated control) in cell culture medium and were incubated for 24 hours. Compound-containing medium was removed and cells were incubated with pre-warmed cell culture medium containing 1× LysoView™ 633 (70058 and 70058-T, Biotium) or 50 nM LysoTracker™ Deep Red (L12492, ThermoFisher Scientific) for 45 minutes at 37° C. Finally, cell nuclei were stained for 10 minutes using Hoechst 33342 (1 μg/mL) and then the medium was replaced with fresh medium. The 24 well plate was then fitted into a heated stage on the microscope and cells maintained at 37° C. Images were captured using appropriate filter set for Cy5 and DAPI detection with the EVOS M7000 Microscope (ThermoFisher Scientific). The cellular phenotype was visually assessed for the induction of acidic vesicle formation relative to the non-treated control; multiple images were acquired and analysed using ImageJ or Cell Profiler.

Q: With `CCOc1ccc(C(F)(F)F)cc1CN1CCN[C@H](C)C1` [Compound 36, (R)-1-(2-ethoxy-5-(trifluoromethyl)benzyl)-3-methylpiperazine hydrochloride] as the compound, how does the activation at 0.8 µM read?
A: Its activation at 0.8 µM is 10 to 30%.

Q: And the activation at 10 µM?
A: The activation at 10 µM was no less than 25%.

Q: Which results are given for `CCOc1cc(Cl)c(Cl)cc1CN1CCN[C@@H](C)C1` [Compound 37, (S)-1-(4,5-dichloro-2-ethoxybenzyl)-3-methylpiperazine hydrochloride]?
A: activation at 0.8 µM: 10 to 30%; activation at 10 µM: ≥ 25%

Q: With `CCOc1ccc(OC(F)(F)F)cc1CN1CCN[C@@H](C)C1` [Compound 38, (S)-1-(2-ethoxy-5-(trifluoromethoxy)benzyl)-3-methylpiperazine hydrochloride] as the compound, how does the activation at 0.8 µM read?
A: Its activation at 0.8 µM is 10 to 30%.

Q: And the activation at 10 µM?
A: The activation at 10 µM was no less than 25%.

Q: With `CCOc1ccc(CN2CCC(CN)C2)cc1Cl` (centres unmarked) [Compound 39, (1-(3-chloro-4-ethoxybenzyl)pyrrolidin-3-yl)methanamine hydrochloride] as the compound, how does the activation at 0.8 µM read?
A: The activation at 0.8 µM was 30 to 50%.

Q: And the activation at 10 µM?
A: Its activation at 10 µM is no less than 25%.

Q: Which activation at 0.8 µM does the source give for `CCOc1ccc(Cl)cc1CN1CCNCC1` [Compound 40, 1-(5-chloro-2-ethoxybenzyl)piperazine hydrochloride] here?
A: Its activation at 0.8 µM is 10 to 30%.

Q: What about the activation at 10 µM of the same compound?
A: Its activation at 10 µM is no less than 25%.

Q: Which activation at 0.8 µM does the source give for `CCOc1ccc(Cl)cc1CN1CCOC(CN)C1` (centres unmarked) [Compound 41, (4-(5-chloro-2-ethoxybenzyl)morpholin-2-yl)methanamine hydrochloride] here?
A: Its activation at 0.8 µM is 10 to 30%.

Q: And the activation at 10 µM?
A: The activation at 10 µM was no less than 25%.

Q: `CCOc1ccc(C(F)(F)F)cc1CCN1CC[C@@H](CN)C1` [Compound 42, (S)-(1-(2-ethoxy-5-(trifluoromethyl)phenethyl)pyrrolidin-3-yl)methanamine hydrochloride] was tested. Which activation at 0.8 µM did it give?
A: Its activation at 0.8 µM is 50 to 100%.

Q: What about the activation at 10 µM of the same compound?
A: Its activation at 10 µM is no less than 25%.

Q: What does the source list for `CCCOc1ccc(Cl)cc1CCN1CCC[C@@H](CN)C1` [Compound 43, (S)-(1-(5-chloro-2-propoxyphenethyl)piperidin-3-yl)methanamine hydrochloride]?
A: activation at 0.8 µM: 50 to 100%; activation at 10 µM: ≥ 25%

Q: What does the source list for `NC[C@@H]1CCN(CCc2cc(Cl)ccc2OCC2CC2)C1` [Compound 44, (S)-(1-(5-chloro-2-(cyclopropylmethoxy)phenethyl)pyrrolidin-3-yl)methanamine hydrochloride]?
A: activation at 0.8 µM: 50 to 100%; activation at 10 µM: ≥ 25%

Q: What does the source list for `CCOc1ccc(Cl)cc1CCN1CCC[C@@H](CN)C1` [Compound 45, (S)-(1-(5-chloro-2-ethoxyphenethyl)piperidin-3-yl)methanamine hydrochloride]?
A: activation at 0.8 µM: 50 to 100%; activation at 10 µM: ≥ 25%

Q: With `C[C@H]1CN(Cc2cc(Cl)ccc2OCC2CC2)CCN1` [Compound 46, (S)-1-(5-chloro-2-(cyclopropylmethoxy)benzyl)-3-methylpiperazine hydrochloride] as the compound, how does the activation at 0.8 µM read?
A: Its activation at 0.8 µM is 10 to 30%.

Q: What about the activation at 10 µM of the same compound?
A: The activation at 10 µM was no less than 25%.

Q: With `CCCOc1ccc(Cl)cc1CN1CCN[C@@H](C)C1` [Compound 47, (S)-1-(5-chloro-2-propoxybenzyl)-3-methylpiperazine hydrochloride] as the compound, how does the activation at 0.8 µM read?
A: Its activation at 0.8 µM is 30 to 50%.

Q: And the activation at 10 µM?
A: The activation at 10 µM was no less than 25%.

Q: What does the source list for `CCCOc1ccc(Cl)cc1CCN1CC[C@@H](CN)C1` [Compound 48, (S)-(1-(5-chloro-2-propoxyphenethyl)pyrrolidin-3-yl)methanamine hydrochloride]?
A: activation at 0.8 µM: 10 to 30%; activation at 10 µM: ≥ 25%

Q: With `CCOc1ccc(Cl)cc1CCN1CC[C@@H](CN)C1` [Compound 49, (S)-(1-(5-chloro-2-ethoxyphenethyl)pyrrolidin-3-yl)methanamine hydrochloride] as the compound, how does the activation at 10 µM read?
A: The activation at 10 µM was no less than 25%.

Q: `CCOc1ccc(Cl)cc1CN1CC[C@@H](CN(C)C)C1` [Compound 50, (S)-1-(1-(5-chloro-2-ethoxybenzyl)pyrrolidin-3-yl)-N,N-dimethylmethanamine] was tested. Which activation at 0.8 µM did it give?
A: The activation at 0.8 µM was 10 to 30%.

Q: What about the activation at 10 µM of the same compound?
A: The activation at 10 µM was no less than 25%.

Q: Which activation at 10 µM does the source give for `CCOc1ccc(Cl)cc1CN1CC[C@@H](CNC)C1` [Compound 51, (S)-1-(1-(5-chloro-2-ethoxybenzyl)pyrrolidin-3-yl)-N-methylmethanamine] here?
A: Its activation at 10 µM is no less than 25%.

Q: `CC(C)COc1ccc(Cl)cc1CN1CC[C@@H](CN)C1` [Compound 52, (S)-(1-(5-chloro-2-isobutoxybenzyl)pyrrolidin-3-yl)methanamine hydrochloride] was tested. Which activation at 0.8 µM did it give?
A: The activation at 0.8 µM was 10 to 30%.

Q: What about the activation at 10 µM of the same compound?
A: Its activation at 10 µM is no less than 25%.

Q: For `CC(C)Oc1ccc(Cl)cc1CN1CC[C@@H](CN)C1` [Compound 53, (S)-(1-(5-chloro-2-isopropoxybenzyl)pyrrolidin-3-yl)methanamine hydrochloride], which activation at 10 µM is on record?
A: Its activation at 10 µM is no less than 25%.

Q: Which activation at 10 µM does the source give for `COCCOc1ccc(Cl)cc1CN1CC[C@@H](CN)C1` [Compound 54, (S)-(1-(5-chloro-2-(2-methoxyethoxy)benzyl)pyrrolidin-3-yl)methanamine hydrochloride] here?
A: The activation at 10 µM was no less than 25%.

Q: Which results are given for `NC[C@@H]1CCN(Cc2cc(Cl)cc3c2OCO3)C1` [Compound 55, (S)-(1-((6-chlorobenzo[d][1,3]dioxol-4-yl)methyl)pyrrolidin-3-yl)methanamine hydrochloride]?
A: activation at 0.8 µM: > 100%; activation at 10 µM: ≥ 25%

Q: Which activation at 0.8 µM does the source give for `CCOc1ccc(Cl)cc1CN1CC[C@H](CN)C1` [Compound 56, (R)-(1-(5-chloro-2-ethoxybenzyl)pyrrolidin-3-yl)methanamine hydrochloride] here?
A: The activation at 0.8 µM was greater than 100%.

Q: And the activation at 10 µM?
A: Its activation at 10 µM is no less than 25%.

Q: How did the activation at 10 µM turn out when `CCOc1ccc(CN2CC[C@@H](CN)C2)c(F)c1Cl` [Compound 57, (S)-(1-(3-chloro-4-ethoxy-2-fluorobenzyl)pyrrolidin-3-yl)methanamine hydrochloride] was run?
A: Its activation at 10 µM is no less than 25%.

Q: With `CCOc1cc(F)c(CN2CC[C@@H](CN)C2)cc1Cl` [Compound 58, (S)-(1-(5-chloro-4-ethoxy-2-fluorobenzyl)pyrrolidin-3-yl)methanamine hydrochloride] as the compound, how does the activation at 10 µM read?
A: Its activation at 10 µM is no less than 25%.

Q: For `CCOc1cc(C#N)c(Cl)cc1CN1CC[C@H](CN)C1` [Compound 60, (R)-4-((3-(aminomethyl)pyrrolidin-1-yl)methyl)-2-chloro-5-ethoxybenzonitrile hydrochloride], which activation at 10 µM is on record?
A: The activation at 10 µM was no less than 25%.

Q: `CCOc1cc(C#N)c(Cl)cc1CN1CC[C@@H](CN)C1` [Compound 61, (S)-4-((3-(aminomethyl)pyrrolidin-1-yl)methyl)-2-chloro-5-ethoxybenzonitrile hydrochloride] was tested. Which activation at 10 µM did it give?
A: The activation at 10 µM was no less than 25%.

Q: `CCOc1ccc(Cl)cc1CCN1CCO[C@@H](CN)C1` [Compound 63, (S)-(4-(5-chloro-2-ethoxyphenethyl)morpholin-2-yl)methanamine hydrochloride] was tested. Which activation at 10 µM did it give?
A: Its activation at 10 µM is no less than 25%.

Q: `CCOc1ccc(C#N)cc1CCN1CCC[C@@H](CN)C1` [Compound 64, (S)-3-(2-(3-(aminomethyl)piperidin-1-yl)ethyl)-4-ethoxybenzonitrile hydrochloride] was tested. Which activation at 10 µM did it give?
A: The activation at 10 µM was no less than 25%.

Q: With `N#Cc1ccc(OCC2CC2)c(CCN2CC[C@@H](CN)C2)c1` [Compound 66, (S)-3-(2-(3-(aminomethyl)pyrrolidin-1-yl)ethyl)-4-(cyclopropylmethoxy)benzonitrile hydrochloride] as the compound, how does the activation at 10 µM read?
A: The activation at 10 µM was no less than 25%.

Q: Which activation at 10 µM does the source give for `CCOc1ccc(CCN2CCC[C@@H](CN)C2)cc1Cl` [Compound 67, (S)-(1-(3-chloro-4-ethoxyphenethyl)piperidin-3-yl)methanamine hydrochloride] here?
A: The activation at 10 µM was no less than 25%.

Q: Which activation at 10 µM does the source give for `CCOc1ccc(Cl)cc1CN1CC[C@H](N)C1` [Compound 69, (S)-1-(5-chloro-2-ethoxybenzyl)pyrrolidin-3-amine hydrochloride] here?
A: The activation at 10 µM was no less than 25%.
